Molecular target: Cannabinoid receptor 1 (Cricetulus griseus, UniProt Q99NU1)
Test: CB1 Receptor Binding Assay (In Vitro)
Procedure: The target compounds were evaluated using a binding assay towards the CB1 receptor expressed on the membranes of Chinese hamster ovarian (CHO) cells. […] The potent synthetic cannabinoid agonist, [3H]-CP55940, was used as a radioligand (Figure 1). The CHO cells were incubated in 96-well microtiter plates. Various concentrations of the synthesised cannabinoid ligands were added and incubated for 10 min at 37°C. […] The cells were lysed and scintillation fluid was added. […] There were three parallels in the tests.

Sequence of Cannabinoid receptor 1 (Q99NU1 whole entry): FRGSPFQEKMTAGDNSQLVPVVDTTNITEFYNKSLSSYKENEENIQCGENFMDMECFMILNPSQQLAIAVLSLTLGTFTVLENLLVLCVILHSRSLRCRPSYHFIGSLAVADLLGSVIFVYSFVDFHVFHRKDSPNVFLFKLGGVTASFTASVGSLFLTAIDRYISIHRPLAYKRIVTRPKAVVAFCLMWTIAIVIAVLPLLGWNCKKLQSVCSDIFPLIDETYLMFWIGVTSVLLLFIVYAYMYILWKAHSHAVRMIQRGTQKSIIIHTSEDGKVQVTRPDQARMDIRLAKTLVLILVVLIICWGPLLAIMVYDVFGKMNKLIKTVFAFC

Row | SMILES | IC50
1 | Cc1c(C(=O)NC2CCC(C)CC2)nn(-c2ccc(Cl)cc2Cl)c1-c1ccc(Cl)cc1 (centres undefined) [5-(4-chlorophenyl)-1-(2,4-dichlorophenyl)-4-methyl-N-(4-methylcyclohexyl)-1H-pyrazol-3-carboxamide (12d)] | 4.31 nM
2 | Cc1c(C(=O)NN2CCCCC2)nn(-c2ccc(C(F)(F)F)cc2)c1-c1ccc(Cl)cc1 [5-(4-Chlorophenyl)-4-methyl-1-[4-(trifluoromethyl)phenyl]-N-(piperidin-1-yl)-1H-pyrazole-3-carboxamide (12k)] | 93.4 nM
3 | Cc1c(C(=O)NCCCN2CCCC2)nn(-c2ccc(Cl)cc2Cl)c1-c1ccc(Cl)cc1 [5-(4-Chlorophenyl)-1-(2,4-dichlorophenyl)-4-methyl-N-(3-(pyrrolidin-1-yl)propyl)-1H-pyrazole-3-carboxamide (12e)] | 672 nM
4 | Cc1c(C(=O)NCCCCN2CCCCC2)nn(-c2ccc(Cl)cc2Cl)c1-c1ccc(Cl)cc1 [5-(4-Chlorophenyl)-1-(2,4-dichlorophenyl)-4-methyl-N-(4-(piperidin-1-yl)butyl)-1H-pyrazole-3-carboxamide (12f)] | > 1000 nM
5 | COc1ccc2ccc(CCNC(=O)c3nn(-c4ccc(Cl)cc4Cl)c(-c4ccc(Cl)cc4)c3C)cc2c1 [5-(4-Chlorophenyl)-1-(2,4-dichlorophenyl)-4-methyl-N-[2-(7-methoxynaphthalen-2-yl)ethyl]-1H-pyrazol-3-carboxamide (12g)] | 398 nM
6 | Cc1c(C(=O)NCCCN2CCOCC2)nn(-c2ccc(Cl)cc2Cl)c1-c1ccc(Cl)cc1 [5-(4-Chlorophenyl)-1-(2,4-dichlorophenyl)-4-methyl-N-[3-(4-morpholinyl)propyl]-1H-pyrazole-3-carboxamide (12b)] | 455 nM
7 | Cc1c(C(=O)NC2CCC(C)CC2)nn(-c2ccccn2)c1-c1ccc(Cl)cc1 (centres undefined) [5-(4-Chlorophenyl)-4-methyl-1-(pyridin-2-yl)-N-(4-methylcyclohexyl)-1H-pyrazole-3-carboxamide (12j)] | 612 nM
8 | CCN(CC)CCCNC(=O)c1nn(-c2ccc(Cl)cc2Cl)c(-c2ccc(Cl)cc2)c1C [5-(4-Chlorophenyl)-1-(2,4-dichlorophenyl)-4-methyl-N-[3-(N,N-diethylamino)propyl]-1H-pyrazol-3-carboxamide (12c)] | > 1000 nM
9 | Cc1c(C(=O)NN2CCCCCC2)nn(-c2ccccn2)c1-c1ccc(Cl)cc1 [5-(4-Chlorophenyl)-4-methyl-1-(pyridin-2-yl)-N-(azepan-1-yl)-1H-pyrazole-3-carboxamide (12i)] | 382 nM
10 | Cc1c(C(=O)NC2CCC(C)CC2)nn(-c2ccc(C(F)(F)F)cc2)c1-c1ccc(Cl)cc1 (centres undefined) [5-(4-Chlorophenyl)-4-methyl-1-[4-(trifluoromethyl)phenyl]-N-(4-methylcyclohexyl)-1H-pyrazole-3-carboxamide (12m)] | 79 nM
11 | Cc1c(C(=O)NN2CCN(C)CC2)nn(-c2ccc(Cl)cc2Cl)c1-c1ccc(Cl)cc1 [5-(4-Chlorophenyl)-1-(2,4-dichlorophenyl)-4-methyl-N-(4-methylpiperazin-1-yl)-1H-pyrazole-3-carboxamide (12a)] | 173 nM
12 | Cc1c(C(=O)NN2CCCCC2)nn(-c2ccccn2)c1-c1ccc(Cl)cc1 [5-(4-Chlorophenyl)-4-methyl-1-(pyridin-2-yl)-N-(piperidin-1-yl)-1H-pyrazole-3-carboxamide (12h)] | 510 nM
13 | Cc1c(C(=O)NN2CCCCCC2)nn(-c2ccc(C(F)(F)F)cc2)c1-c1ccc(Cl)cc1 [5-(4-Chlorophenyl)-4-methyl-1-[4-(trifluoromethyl)phenyl]-N-(azepan-1-yl)-1H-pyrazole-3-carboxamide (12l)] | 98.3 nM
14 | Cc1c(CN(CC(=O)O)Cc2nn(-c3ccc(Cl)cc3Cl)c(-c3ccc(Cl)cc3)c2C)nn(-c2ccc(Cl)cc2Cl)c1-c1ccc(Cl)cc1 [[2-Bis-[[5-(4-chlorophenyl)-1-(2,4-dichlorophenyl)-4-methyl-1H-pyrazol-3-yl]methyl]amino] acetic acid (13c)] | 516 nM
